Test results taken from ChEMBL document CHEMBL3046897, “Synthesis of 3-{4-[4-dimethylamino-6-(4-methyl-2-oxo-2H-chromen-7-yloxy)-[1,3,5]triazin-2-ylamino]-phenyl}-2-phenyl-5-(4-pyridin-2-yl-piperazin-1-ylmethyl)-thiazolidin-4-one and their biological evaluation” (2012).
Converted amounts (≈) assume the structure as drawn.

How the values were obtained:
Assay type in all cases: functional
Shigella flexneri [1] = experiment: Antibacterial activity against Shigella flexneri after 24 hr by agar streak dilution method
Proteus vulgaris [2] = experiment: Antibacterial activity against Proteus vulgaris after 24 hr by agar streak dilution method
Salmonella typhi [3] = experiment: Antibacterial activity against Salmonella enterica subsp. enterica serovar Typhi after 24 hr by agar streak dilution method
Klebsiella pneumoniae [4] = experiment: Antibacterial activity against Klebsiella pneumoniae after 24 hr by agar streak dilution method
Candida albicans [5] = experiment: Antifungal activity against Candida albicans at 100 ug/disk after 48 hr by paper disk diffusion method; settings: read-out: IZ
Aspergillus clavatus [6] = experiment: Antifungal activity against Aspergillus clavatus at 100 ug/disc after 48 hr by paper disk diffusion method; settings: read-out: IZ
Aspergillus fumigatus [7] = experiment: Antifungal activity against Aspergillus fumigatus at 100 ug/disc after 48 hr by paper disk diffusion method; settings: read-out: IZ
Aspergillus niger [8] = experiment: Antifungal activity against Aspergillus niger at 100 ug/disk after 48 hr by paper disk diffusion method; settings: read-out: IZ
Candida albicans [9] = experiment: Antifungal activity against Candida albicans after 48 hr by agar streak dilution method
Aspergillus clavatus [10] = experiment: Antifungal activity against Aspergillus clavatus after 48 hr by agar streak dilution method
Aspergillus niger [11] = experiment: Antifungal activity against Aspergillus niger after 48 hr by agar streak dilution method
Pseudomonas aeruginosa [12] = experiment: Antibacterial activity against Pseudomonas aeruginosa after 24 hr by agar streak dilution method
Escherichia coli [13] = experiment: Antibacterial activity against Escherichia coli after 24 hr by agar streak dilution method
Shigella flexneri [14] = experiment: Antibacterial activity against Shigella flexneri at 100 ug/disc after 24 hr by paper disk diffusion method; settings: read-out: IZ
Proteus vulgaris [15] = experiment: Antibacterial activity against Proteus vulgaris at 100 ug/disk after 24 hr by paper disk diffusion method; settings: read-out: IZ
Salmonella typhi [16] = experiment: Antibacterial activity against Salmonella enterica subsp. enterica serovar Typhi at 100 ug/disk after 24 hr by paper disk diffusion method; settings: read-out: IZ
Klebsiella pneumoniae [17] = experiment: Antibacterial activity against Klebsiella pneumoniae at 100 ug/disk after 24 hr by paper disk diffusion method; settings: read-out: IZ
Pseudomonas aeruginosa [18] = experiment: Antibacterial activity against Pseudomonas aeruginosa at 100 ug/disk after 24 hr by paper disk diffusion method; settings: read-out: IZ
Escherichia coli [19] = experiment: Antibacterial activity against Escherichia coli at 100 ug/disk after 24 hr by paper disk diffusion method; settings: read-out: IZ
Bacillus subtilis [20] = experiment: Antibacterial activity against Bacillus subtilis after 24 hr by agar streak dilution method
Staphylococcus aureus [21] = experiment: Antibacterial activity against Staphylococcus aureus after 24 hr by agar streak dilution method
Bacillus subtilis [22] = experiment: Antibacterial activity against Bacillus subtilis at 100 ug/disk after 24 hr by paper disk diffusion method; settings: read-out: IZ
Staphylococcus aureus [23] = experiment: Antibacterial activity against Staphylococcus aureus at 100 ug/disc after 24 hr by paper disk diffusion method; settings: read-out: IZ
Aspergillus fumigatus [24] = experiment: Antifungal activity against Aspergillus fumigatus after 48 hr by agar streak dilution method

SMILES	MIC (Shigella flexneri [1]) [µg/mL]	MIC (Proteus vulgaris [2]) [µg/mL]	MIC (Salmonella typhi [3]) [µg/mL]	MIC (Klebsiella pneumoniae [4]) [µg/mL]	zone of inhibition at 100 µg/disc (Candida albicans [5]) [mm]	zone of inhibition at 100 µg/disc (Aspergillus clavatus [6]) [mm]	zone of inhibition at 100 µg/disc (Aspergillus fumigatus [7]) [mm]	zone of inhibition at 100 µg/disc (Aspergillus niger [8]) [mm]	MIC (Candida albicans [9]) [µg/mL]	MIC (Aspergillus clavatus [10]) [µg/mL]	MIC (Aspergillus niger [11]) [µg/mL]	MIC (Pseudomonas aeruginosa [12]) [µg/mL]	MIC (Escherichia coli [13]) [µg/mL]	zone of inhibition at 100 µg/disc (Shigella flexneri [14]) [mm]	zone of inhibition at 100 µg/disc (Proteus vulgaris [15]) [mm]	zone of inhibition at 100 µg/disc (Salmonella typhi [16]) [mm]	zone of inhibition at 100 µg/disc (Klebsiella pneumoniae [17]) [mm]	zone of inhibition at 100 µg/disc (Pseudomonas aeruginosa [18]) [mm]	zone of inhibition at 100 µg/disc (Escherichia coli [19]) [mm]	MIC (Bacillus subtilis [20]) [µg/mL]	other results
Cc1cc(=O)oc2cc(Oc3nc(Nc4ccc(N5C(=O)C(CN6CCN(c7ccccn7)CC6)SC5c5ccc(F)cc5)cc4)nc(N(C)C)n3)ccc12 (stereo unspecified)	25 (≈ 32.9 µM)	12.5 (≈ 16.5 µM)	50 (≈ 65.8 µM)	50 (≈ 65.8 µM)	27	26	21	29	6.25 (≈ 8.23 µM)	6.25 (≈ 8.23 µM)	6.25 (≈ 8.23 µM)	6.25 (≈ 8.23 µM)	25 (≈ 32.9 µM)	21	22	19	18	26	20	12.5 (≈ 16.5 µM)	MIC (Staphylococcus aureus [21]): 6.25 µg/mL (≈ 8.23 µM); zone of inhibition at 100 µg/disc (Bacillus subtilis [22]): 23 mm; zone of inhibition at 100 µg/disc (Staphylococcus aureus [23]): 28 mm; MIC (Aspergillus fumigatus [24]): 12.5 µg/mL (≈ 16.5 µM)
Cc1cc(=O)oc2cc(Oc3nc(Nc4ccc(N5C(=O)C(CN6CCN(c7ccccn7)CC6)SC5c5ccc(Cl)cc5)cc4)nc(N(C)C)n3)ccc12 (stereo unspecified)	6.25 (≈ 8.05 µM)	12.5 (≈ 16.1 µM)	12.5 (≈ 16.1 µM)	25 (≈ 32.2 µM)	26	25	21	18	6.25 (≈ 8.05 µM)	12.5 (≈ 16.1 µM)	50 (≈ 64.4 µM)	50 (≈ 64.4 µM)	50 (≈ 64.4 µM)	27	25	24	22	18	23	50 (≈ 64.4 µM)	MIC (Staphylococcus aureus [21]): 25 µg/mL (≈ 32.2 µM); zone of inhibition at 100 µg/disc (Bacillus subtilis [22]): 18 mm; zone of inhibition at 100 µg/disc (Staphylococcus aureus [23]): 21 mm; MIC (Aspergillus fumigatus [24]): 12.5 µg/mL (≈ 16.1 µM)
Cc1cc(=O)oc2cc(Oc3nc(Nc4ccc(N5C(=O)C(CN6CCN(c7ccccn7)CC6)SC5c5ccccc5Br)cc4)nc(N(C)C)n3)ccc12 (stereo unspecified)	100 (≈ 122 µM)	50 (≈ 60.9 µM)	100 (≈ 122 µM)	50 (≈ 60.9 µM)	25	23	27	25	12.5 (≈ 15.2 µM)	12.5 (≈ 15.2 µM)	25 (≈ 30.5 µM)	25 (≈ 30.5 µM)	50 (≈ 60.9 µM)	15	19	14	17	22	20	25 (≈ 30.5 µM)	MIC (Staphylococcus aureus [21]): 50 µg/mL (≈ 60.9 µM); zone of inhibition at 100 µg/disc (Bacillus subtilis [22]): 22 mm; zone of inhibition at 100 µg/disc (Staphylococcus aureus [23]): 20 mm; MIC (Aspergillus fumigatus [24]): 6.25 µg/mL (≈ 7.61 µM)
Cc1cc(=O)oc2cc(Oc3nc(Nc4ccc(/N=C/c5ccc(Cl)c(Cl)c5)cc4)nc(N(C)C)n3)ccc12	100 (≈ 178 µM)	100 (≈ 178 µM)	100 (≈ 178 µM)	100 (≈ 178 µM)	10	15	12	< 10	100 (≈ 178 µM)	100 (≈ 178 µM)	100 (≈ 178 µM)	50 (≈ 89.1 µM)	100 (≈ 178 µM)	15	12	14	12	16	11	100 (≈ 178 µM)	MIC (Staphylococcus aureus [21]): 100 µg/mL (≈ 178 µM); zone of inhibition at 100 µg/disc (Bacillus subtilis [22]): 15 mm; zone of inhibition at 100 µg/disc (Staphylococcus aureus [23]): 13 mm; MIC (Aspergillus fumigatus [24]): 100 µg/mL (≈ 178 µM)
